{"source": "BindingDB's records for doi:10.1080/14756360109162353", "about": "(Cardiff University, 2001)", "note": "Values joined by “and” are separate entries in the source; they are usually repeats but may differ in a detail not shown here. Identical values can stand only once.", "data": [{"target": "T1, 17-beta-hydroxysteroid dehydrogenase type 3 (Homo sapiens, UniProt P37058)", "T1 sequence (P37058 whole entry)": "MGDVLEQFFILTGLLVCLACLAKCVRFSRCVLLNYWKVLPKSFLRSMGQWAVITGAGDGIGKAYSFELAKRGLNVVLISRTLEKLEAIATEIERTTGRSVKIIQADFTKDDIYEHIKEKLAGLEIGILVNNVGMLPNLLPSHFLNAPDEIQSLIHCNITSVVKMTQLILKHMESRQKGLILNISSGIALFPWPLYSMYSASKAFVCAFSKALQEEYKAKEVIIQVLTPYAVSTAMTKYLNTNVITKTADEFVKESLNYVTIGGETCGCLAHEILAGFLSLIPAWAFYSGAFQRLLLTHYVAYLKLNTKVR", "experiment": "Inhibition Assay", "settings": "pH 7.45; 37 °C", "from_the_text": "Inhibition assay of human testes mcrosomal 17 beta-hydroxysteroid dehydrogenase for the reduction of androstenedione.", "values": [{"smiles": "O=c1c(O)c(-c2cc(O)c(O)c(O)c2)oc2cc(O)cc(O)c12", "IC50": "100 µM"}, {"smiles": "O=c1c(O)c(-c2ccc(O)c(O)c2)oc2cc(O)ccc12", "note": "[2-(3,4-dihydroxyphenyl)-3,7-dihydroxy-chromen-4-one]", "IC50": "32.4 µM"}, {"smiles": "Oc1ccc(O)c(-c2ccccc2)c1", "note": "[2-Phenylhydroquinone, 7]", "IC50": "14.8 µM"}, {"smiles": "CCN(CC)CCOc1ccc(/C(=C(\\Cl)c2ccccc2)c2ccccc2)cc1", "note": "[2-[4-[(Z)-2-chloranyl-1,2-diphenyl-ethenyl]phenoxy]-N,N-diethyl-ethanamine;2-oxidanylpropane-1,2,3-tricarboxylic acid]", "IC50": "76.2 µM"}, {"smiles": "O=C1C=CC(=O)C(c2ccccc2)=C1", "note": "[2-phenylcyclohexa-2,5-diene-1,4-dione]", "IC50": "5.7 µM"}, {"smiles": "COc1ccc(-c2coc3cc(O)cc(O)c3c2=O)cc1", "note": "[5,7-dihydroxy-3-(4-methoxyphenyl)-4H-chromen-4-one]", "IC50": "10.8 µM"}, {"smiles": "O=c1cc(-c2ccccc2)oc2ccc(O)cc12", "note": "[6-hydroxy-2-phenyl-4H-chromen-4-one]", "IC50": "16.4 µM"}, {"smiles": "C#CCC1(C(=O)OC(=C(c2ccccc2)c2ccccc2)c2ccccc2)CC(=O)NC1=O", "note": "(stereo not drawn) [17Beta-HSD Inhibitor, 3]", "IC50": "9.15 µM"}, {"smiles": "O=c1cc(-c2ccc(O)cc2)oc2cc(O)cc(O)c12", "note": "[Naringenin, 18]", "IC50": "21.3 µM and 16.4 µM"}, {"smiles": "O=c1c(-c2ccc(O)cc2)coc2cc(O)cc(O)c12", "note": "[Prunetol]", "IC50": "30.3 µM"}]}]}
